How the values were obtained:
MOLT-4 = assay: NCI single-dose GI%, leukemia; format: cell-based, human; conditions: MOLT-4, leukemia; 10.0 μM in one dose
leukemia HL-60 = assay: cells; conditions: Homo sapiens, HL-60, 48 h, read-out: In vitro cytotoxicity IC50
Method: (§1) The antitumor experiment was conducted on 59 human tumor cell lines derived from nine different human tissues, following the procedure of the Drug Evaluation Branch at the NCI, Bethesda, MD.[33]

MDA-MB-231 = assay: cells; conditions: Homo sapiens, MDA-MB-231, 48 h, read-out: In vitro cytotoxicity IC50
Method: as §1

HL-60 cells [1] = assay: Cell cycle analysis by flow cytometry; format: cell-based, human; conditions: at IC50 concentration
Method: Flow cytometry measures cell growth in different cell cycle phases (G0–G1, S, G2/M and pre-G1).[33,77] This study aimed to find out how the target compounds affect the growth of cancer cells by examining at how they change the cell cycle and cause apoptosis in HL-60 cells.
The cell cycle analysis was conducted similarly to our prior study, using the leukemia HL-60 cell line. The cells were stained with the DNA fluorochrome PI and analyzed using a FACSCalibur flow cytometer.[33,77]

PC-3 = assay: NCI single-dose GI%, prostate; format: cell-based, human; conditions: PC-3, prostate; 10.0 μM in one dose
MCF7 = assay: NCI single-dose GI%, breast; format: cell-based, human; conditions: 10.0 μM in one dose
[2] = tested on: Bcl-2 in MDA-MB-231 cells; assay: Apoptotic markers assay, Bcl-2; format: cell-based, human; conditions: at IC50 concentration, vs untreated control
Method: (§2) The levels of Bax (apoptosis promoter), Bcl-2 (apoptosis inhibitor), and apoptosis coordination enzymes (caspase-3 and caspase-9) were measured.[78–80]

HER2 = HER2 (Homo sapiens, UniProt P04626); assay: HER2 tyrosine kinase inhibition assay
59 cancer cell lines = assay: NCI 59 cancer cell line panel, single dose; format: cell-based, human; conditions: 10 μM single dose; for MG% (mean growth percent): 59 cell lines; for Mean GI% Breast cancer: breast cancer subpanel; for Mean GI% Leukemia: leukemia subpanel
Bax in MDA-MB-231 cells = assay: Apoptotic markers assay, Bax; format: cell-based, human; conditions: at IC50 concentration, vs untreated control
Method: as §2
Apoptotic markers experiment was performed according to reported procedure using MDA-MB-231 cancer cell line.[78–80]

VEGFR2 = VEGFR2 (Homo sapiens, UniProt P35968); assay: VEGFR2 tyrosine kinase inhibition assay
COLO 205 = assay: NCI single-dose GI%, colon; format: cell-based, human; conditions: COLO 205, colon; 10.0 μM in one dose
[3] = tested on: WI-38 normal fibroblast cells; assay: in vitro; conditions: ratio of WI38 IC50 to cancer cell IC50 values
Method: (§3) A normal fibroblast-like fetal lung cell line (WI-38) was used to further investigate the therapeutic safety of the newly synthesized hybrids and evaluate their selective cytotoxicity toward normal and tumor cells.[33,77]
as §1

in vitro = conditions: human
Method: as §3, §1

UO-31 = assay: NCI single-dose GI%, renal; format: cell-based, human; conditions: UO-31, renal; 10.0 μM in one dose
EKVX = assay: NCI single-dose GI%, NSC lung; format: cell-based, human; conditions: 10.0 μM in one dose
T-47D = assay: NCI single-dose GI%, breast; format: cell-based, human; conditions: 10.0 μM in one dose
HT29 = assay: NCI single-dose GI%, colon; format: cell-based, human; conditions: 10.0 μM in one dose
HL-60(TB) = assay: NCI single-dose GI%, leukemia; format: cell-based, human; conditions: 10.0 μM in one dose
COX-2 = molecular target: T1, COX-2 (Ovis aries, UniProt P79208); assay: Colorimetric COX-2 inhibition assay
T1 sequence (P79208 17-603): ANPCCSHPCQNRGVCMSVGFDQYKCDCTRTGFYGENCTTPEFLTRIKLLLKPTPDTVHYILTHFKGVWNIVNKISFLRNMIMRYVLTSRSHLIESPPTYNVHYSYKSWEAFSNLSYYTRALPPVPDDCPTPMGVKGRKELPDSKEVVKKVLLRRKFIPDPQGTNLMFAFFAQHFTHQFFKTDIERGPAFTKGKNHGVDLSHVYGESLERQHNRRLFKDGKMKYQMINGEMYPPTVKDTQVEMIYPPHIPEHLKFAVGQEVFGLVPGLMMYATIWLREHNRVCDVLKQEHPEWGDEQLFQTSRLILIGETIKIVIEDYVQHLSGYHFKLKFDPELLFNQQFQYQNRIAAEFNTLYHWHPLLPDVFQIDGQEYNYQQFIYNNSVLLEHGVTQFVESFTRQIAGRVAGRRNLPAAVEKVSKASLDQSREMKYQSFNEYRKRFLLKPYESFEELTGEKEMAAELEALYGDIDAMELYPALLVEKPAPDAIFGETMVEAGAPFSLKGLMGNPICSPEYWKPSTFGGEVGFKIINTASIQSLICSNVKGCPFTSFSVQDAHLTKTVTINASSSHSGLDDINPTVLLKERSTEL

UACC-257 = assay: NCI single-dose GI%, melanoma; format: cell-based, human; conditions: UACC-257, melanoma; 10.0 μM in one dose
A549/ATCC = assay: NCI single-dose GI%, NSC lung; format: cell-based, human; conditions: 10.0 μM in one dose
HL-60 cells [4] = assay: Annexin V-FITC/PI apoptosis assay; format: cell-based, human; conditions: 24 h, at IC50 concentration
From the text: Most anticancer agents kill cancer cells via an apoptosis induction mechanism.[33,77]
As per our earlier study, we induced apoptosis using the leukemia HL-60 cell line and a widely recognized Annexin 5-FITC/PI detection kit. The cell line samples were examined utilizing a FACSCalibur flow cytometer.[33,77]

CAKI-1 = assay: NCI single-dose GI%, renal; format: cell-based, human; conditions: CAKI-1, renal; 10.0 μM in one dose
K-562 = assay: NCI single-dose GI%, leukemia; format: cell-based, human; conditions: K-562, leukemia; 10.0 μM in one dose
EGFR = EGFR (Homo sapiens, UniProt P00533); assay: EGFR tyrosine kinase inhibition assay
Chain of EGFR (P00533 25-1210): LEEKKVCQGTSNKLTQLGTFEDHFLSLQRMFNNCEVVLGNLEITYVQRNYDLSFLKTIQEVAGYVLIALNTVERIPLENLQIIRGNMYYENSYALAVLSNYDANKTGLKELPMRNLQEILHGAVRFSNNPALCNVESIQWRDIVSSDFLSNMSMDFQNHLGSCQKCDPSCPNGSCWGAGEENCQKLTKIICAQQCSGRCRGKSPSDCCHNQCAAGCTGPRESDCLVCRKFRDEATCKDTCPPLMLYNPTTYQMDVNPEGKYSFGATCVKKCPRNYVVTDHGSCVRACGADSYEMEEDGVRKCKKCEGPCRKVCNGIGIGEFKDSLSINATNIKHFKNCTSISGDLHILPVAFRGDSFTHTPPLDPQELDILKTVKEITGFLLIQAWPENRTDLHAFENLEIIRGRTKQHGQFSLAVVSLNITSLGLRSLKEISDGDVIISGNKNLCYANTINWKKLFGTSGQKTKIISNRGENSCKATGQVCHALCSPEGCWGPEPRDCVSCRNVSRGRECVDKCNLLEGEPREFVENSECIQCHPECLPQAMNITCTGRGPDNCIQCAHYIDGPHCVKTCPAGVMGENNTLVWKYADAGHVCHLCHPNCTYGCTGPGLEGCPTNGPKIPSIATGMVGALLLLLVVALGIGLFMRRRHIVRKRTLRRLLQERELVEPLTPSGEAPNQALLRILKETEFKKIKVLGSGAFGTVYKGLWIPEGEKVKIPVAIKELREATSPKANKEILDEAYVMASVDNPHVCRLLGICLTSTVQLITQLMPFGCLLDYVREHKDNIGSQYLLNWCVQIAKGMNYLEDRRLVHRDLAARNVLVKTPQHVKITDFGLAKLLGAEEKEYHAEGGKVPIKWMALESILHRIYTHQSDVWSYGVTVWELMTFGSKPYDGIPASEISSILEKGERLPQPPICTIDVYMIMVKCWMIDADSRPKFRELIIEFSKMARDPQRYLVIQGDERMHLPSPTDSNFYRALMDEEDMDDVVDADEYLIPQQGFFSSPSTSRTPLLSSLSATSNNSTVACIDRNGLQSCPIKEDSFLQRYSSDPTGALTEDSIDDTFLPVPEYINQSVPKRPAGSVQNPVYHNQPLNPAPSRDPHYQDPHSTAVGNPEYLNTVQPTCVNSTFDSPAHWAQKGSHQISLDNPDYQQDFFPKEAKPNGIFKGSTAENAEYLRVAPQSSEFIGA

Chain of VEGFR2 (P35968 20-1356): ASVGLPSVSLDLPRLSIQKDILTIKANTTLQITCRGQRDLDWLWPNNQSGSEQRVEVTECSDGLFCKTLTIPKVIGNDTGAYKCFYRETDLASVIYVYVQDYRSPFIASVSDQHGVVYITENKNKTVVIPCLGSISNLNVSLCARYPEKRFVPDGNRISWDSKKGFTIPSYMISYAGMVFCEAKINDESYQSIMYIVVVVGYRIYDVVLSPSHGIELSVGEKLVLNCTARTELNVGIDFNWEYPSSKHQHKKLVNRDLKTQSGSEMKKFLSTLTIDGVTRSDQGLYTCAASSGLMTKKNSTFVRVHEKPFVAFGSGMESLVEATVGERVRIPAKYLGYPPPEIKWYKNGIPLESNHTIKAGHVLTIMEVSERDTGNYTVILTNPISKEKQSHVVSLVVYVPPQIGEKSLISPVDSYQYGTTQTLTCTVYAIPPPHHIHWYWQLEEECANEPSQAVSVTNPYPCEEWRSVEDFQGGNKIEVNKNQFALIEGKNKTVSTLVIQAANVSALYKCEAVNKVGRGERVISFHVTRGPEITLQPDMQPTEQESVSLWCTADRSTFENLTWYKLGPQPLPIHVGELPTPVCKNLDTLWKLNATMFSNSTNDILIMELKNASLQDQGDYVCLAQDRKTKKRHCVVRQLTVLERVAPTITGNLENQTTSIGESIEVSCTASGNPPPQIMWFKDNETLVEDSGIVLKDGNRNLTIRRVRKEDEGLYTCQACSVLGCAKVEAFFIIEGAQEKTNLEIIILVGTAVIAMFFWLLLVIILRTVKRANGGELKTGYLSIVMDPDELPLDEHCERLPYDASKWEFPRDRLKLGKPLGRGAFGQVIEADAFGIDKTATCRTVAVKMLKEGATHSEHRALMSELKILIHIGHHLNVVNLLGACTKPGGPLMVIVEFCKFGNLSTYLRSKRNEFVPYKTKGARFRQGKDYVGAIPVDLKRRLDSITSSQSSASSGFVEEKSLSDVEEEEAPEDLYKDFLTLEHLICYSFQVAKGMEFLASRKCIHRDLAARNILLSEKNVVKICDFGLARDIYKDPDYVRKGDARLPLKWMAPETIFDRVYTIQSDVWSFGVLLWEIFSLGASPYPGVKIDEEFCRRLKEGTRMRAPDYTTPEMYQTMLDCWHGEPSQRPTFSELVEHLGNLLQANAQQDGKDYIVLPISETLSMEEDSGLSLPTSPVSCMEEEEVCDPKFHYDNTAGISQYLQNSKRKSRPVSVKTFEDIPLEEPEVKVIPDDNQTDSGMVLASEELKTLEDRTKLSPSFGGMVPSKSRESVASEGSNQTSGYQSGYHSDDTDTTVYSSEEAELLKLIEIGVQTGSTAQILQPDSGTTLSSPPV
Chain of HER2 (P04626 23-1255): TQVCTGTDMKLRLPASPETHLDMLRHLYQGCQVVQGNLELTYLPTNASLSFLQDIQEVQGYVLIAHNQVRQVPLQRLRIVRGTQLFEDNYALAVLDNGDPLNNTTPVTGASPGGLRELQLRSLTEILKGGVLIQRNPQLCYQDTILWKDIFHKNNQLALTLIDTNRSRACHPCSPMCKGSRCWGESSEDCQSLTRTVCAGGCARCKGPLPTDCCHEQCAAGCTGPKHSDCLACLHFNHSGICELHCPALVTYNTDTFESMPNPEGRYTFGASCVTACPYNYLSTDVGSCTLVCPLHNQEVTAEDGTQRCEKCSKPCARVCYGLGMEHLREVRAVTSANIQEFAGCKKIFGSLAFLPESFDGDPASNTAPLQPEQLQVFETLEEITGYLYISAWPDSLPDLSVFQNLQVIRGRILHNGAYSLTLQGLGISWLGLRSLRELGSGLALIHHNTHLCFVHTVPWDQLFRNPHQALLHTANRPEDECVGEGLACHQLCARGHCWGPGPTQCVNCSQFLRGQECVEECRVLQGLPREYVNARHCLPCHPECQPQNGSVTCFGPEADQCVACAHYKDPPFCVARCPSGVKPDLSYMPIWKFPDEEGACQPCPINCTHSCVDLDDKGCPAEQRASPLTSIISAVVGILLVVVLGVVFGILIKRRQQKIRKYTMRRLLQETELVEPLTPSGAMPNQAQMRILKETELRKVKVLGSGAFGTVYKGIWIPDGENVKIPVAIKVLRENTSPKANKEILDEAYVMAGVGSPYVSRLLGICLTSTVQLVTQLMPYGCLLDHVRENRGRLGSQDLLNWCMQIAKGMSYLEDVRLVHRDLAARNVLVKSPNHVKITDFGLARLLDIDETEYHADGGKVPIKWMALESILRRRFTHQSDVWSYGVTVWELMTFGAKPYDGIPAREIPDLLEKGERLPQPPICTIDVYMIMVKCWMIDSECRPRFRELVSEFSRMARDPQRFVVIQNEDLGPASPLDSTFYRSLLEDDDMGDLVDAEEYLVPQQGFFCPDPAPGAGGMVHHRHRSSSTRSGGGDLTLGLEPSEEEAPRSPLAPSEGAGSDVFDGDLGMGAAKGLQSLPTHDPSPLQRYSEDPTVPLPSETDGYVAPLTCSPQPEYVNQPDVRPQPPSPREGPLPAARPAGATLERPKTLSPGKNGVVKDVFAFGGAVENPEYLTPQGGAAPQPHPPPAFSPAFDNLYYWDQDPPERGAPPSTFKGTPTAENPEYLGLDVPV

Row | IC50 (HER2) | IC50 (VEGFR2) | SMILES | GI% (MOLT-4) | IC50 (leukemia HL-60) | IC50 (MDA-MB-231) | % G0–G1 (HL-60 cells [1]) | % G2–M (HL-60 cells [1]) | % Pre-G1 (HL-60 cells [1]) | % S (HL-60 cells [1]) | phase of cell cycle arrest (HL-60 cells [1]) | GI% (PC-3) | GI% (MCF7) | Bcl2 gene expression (fold change) [2] | PCE (positive cytotoxic effect: ratio of cell lines with growth inhibition >10% to total cell lines) (59 cancer cell lines) | MG% (mean growth percent) (59 cancer cell lines) | Mean GI% Breast cancer (59 cancer cell lines) | Mean GI% Leukemia (59 cancer cell lines) | Bax gene expression (fold change) (Bax in MDA-MB-231 cells) | GI% (COLO 205) | Mean tumor selectivity index (WI38/HL60, MCF7, and MDA-MB-231) [3] | also measured
1 | 1.43 ± 0.047 µM | 0.218 ± 0.005 µM | CS(=O)(=O)c1ccc(C(=O)N2N=C(c3ccccc3)CC2c2ccc(F)cc2)cc1 (stereo not drawn) [Compound 18c, (5-(4-Fluorophenyl)-3-phenyl-4,5-dihydro-1H-pyrazol-1-yl)(4-(methylsulfonyl)phenyl)methanone] | 39% | 8.43 ± 1.7 µM | 12.5 ± 0.56 µM | 51.19% | 17.53% | 8.07% | 31.28% | S/G2 phase | 17% | 11% | 0.184 fold change | 21/59 | 90.58% | 16% | 35% | 4.413 fold change | 22% | 3.02 | IC50 at 48 h (in vitro): 34.8 ± 1.54 µM; GI% (UO-31): 20%; GI% (EKVX): 15%; GI% (T-47D): 24%; GI% (HT29): 19%; GI% (HL-60(TB)): 46%; IC50 (COX-2): 127 ± 8.23 µM; GI% (UACC-257): 32%; GI% (A549/ATCC): 32%; Apoptosis Early (HL-60 cells [4]): 2.91%; Apoptosis Late (HL-60 cells [4]): 4.4%; Apoptosis Total (percentage of annexin V-FITC positive cells) (HL-60 cells [4]): 8.06%; Necrosis (HL-60 cells [4]): 0.76%; GI% (CAKI-1): 22%; GI% (K-562): 33%; IC50 (EGFR): 1.12 ± 0.037 µM
2 | 0.253 ± 0.008 µM | 0.135 ± 0.009 µM | CS(=O)(=O)c1ccc(C(=O)N2N=C(c3ccccc3)CC2c2ccccc2O)cc1 (stereo not drawn) [Compound 18h, (5-(2-Hydroxyphenyl)-3-phenyl-4,5-dihydro-1H-pyrazol-1-yl)(4-(methylsulfonyl)phenyl)methanone] | 62% | 8.99 ± 0.4 µM | 7.18 ± 0.32 µM | 53.27% | 17.07% | 10.77% | 29.66% | S/G2 phase | 21% | 22% | 0.423 fold change | 51/59 | 72.20% | 24% | 46% | 2.154 fold change | 20% | 4.51 | IC50 at 48 h (in vitro): 40.9 ± 1.81 µM; GI% (UO-31): 47%; GI% (EKVX): 41%; GI% (T-47D): 30%; GI% (HT29): 20%; GI% (HL-60(TB)): 73%; IC50 (COX-2): 19.3 ± 0.72 µM; GI% (UACC-257): 39%; GI% (A549/ATCC): 45%; Apoptosis Early (HL-60 cells [4]): 6.18%; Apoptosis Late (HL-60 cells [4]): 3.34%; Apoptosis Total (percentage of annexin V-FITC positive cells) (HL-60 cells [4]): 10.77%; Necrosis (HL-60 cells [4]): 1.25%; GI% (CAKI-1): 33%; GI% (K-562): 55%; IC50 (EGFR): 0.574 ± 0.019 µM
3 | 0.496 ± 0.016 µM | 0.168 ± 0.003 µM | Cc1ccc(C2=NN(C(=O)c3ccc(S(C)(=O)=O)cc3)C(c3ccc(C)cc3)C2)cc1 (stereo not drawn) [Compound 18g, (3,5-Bis(4-tolyl)-4,5-dihydro-1H-pyrazol-1-yl)(4-(methylsulfonyl)phenyl)methanone] | 56% | 10.4 ± 0.68 µM | 4.07 ± 0.18 µM | 43.52% | 29.09% | 13.69% | 27.39% | S/G2 phase | 33% | 52% | 0.252 fold change | 48/59 | 72.98% | 31% | 63% | 3.054 fold change | 33% | 3.73 | IC50 at 48 h (in vitro): 26.2 ± 1.16 µM; GI% (UO-31): 26%; GI% (EKVX): 25%; GI% (T-47D): 32%; GI% (HT29): 15%; GI% (HL-60(TB)): 66%; IC50 (COX-2): 94 ± 4.41 µM; GI% (UACC-257): 40%; GI% (A549/ATCC): 43%; Apoptosis Early (HL-60 cells [4]): 4.47%; Apoptosis Late (HL-60 cells [4]): 7.84%; Apoptosis Total (percentage of annexin V-FITC positive cells) (HL-60 cells [4]): 13.69%; Necrosis (HL-60 cells [4]): 1.38%; GI% (CAKI-1): 43%; GI% (K-562): 80%; IC50 (EGFR): 1.02 ± 0.034 µM

From PMC11240878, “Synthesis, enzyme inhibition assay, and molecular modeling study of novel pyrazolines linked to 4-methylsulfonylphenyl scaffold: antitumor activity and cell cycle analysis” (RSC Advances, 2024)
